The text below walks through data of PubChem BioAssay AID248 (DTP/NCI, 2004).

Several values for one entry are separate records, joined by “and”; a condition that tells them apart may be missing. Identical values can stand only once. Inconclusive results and toxic doses are left out.

This experiment relates to L1210 leukemia ip in BDF1 mice, survival T/C. Kind of experiment: NCI In Vivo Anticancer Drug Screen. Data for tumor model L1210 Leukemia (intraperitoneal) in B6D2F1 (BDF1) mice. The note with it: endpoint: mean survival time, higher = longer survival. The method in brief: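 Tumor was transplanted into mice, which were then dosed with test compound or vehicle alone. Survival was recorded for each group, and the treated figure was expressed relative to the control figure.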

Where [1] appears, read: dose: 100.0 mg/kg/injection, schedule: Q01DX009 (ip), vehicle: saline sonified.
The mark [2] stands for this setting: dose: 100.0 mg/kg/injection, schedule: Q04DX003 (ip), vehicle: saline sonified.
Where [3] appears, read: dose: 200.0 mg/kg/injection, schedule: Q01DX009 (ip), vehicle: saline sonified.
The mark [4] stands for this setting: dose: 200.0 mg/kg/injection, schedule: Q04DX003 (ip), vehicle: saline sonified.
[5] abbreviates: dose: 400.0 mg/kg/injection, schedule: Q01DX009 (ip), vehicle: saline sonified.
Setting [6] is: dose: 400.0 mg/kg/injection, schedule: Q04DX003 (ip), vehicle: saline sonified.
Where [7] appears, read: dose: 100.0 mg/kg/injection, schedule: Q01DX001 (ip), vehicle: Klucel (hydroxypropylcellulose) (HPC).
Setting [8] is: dose: 100.0 mg/kg/injection, schedule: Q01DX009 (ip), vehicle: Klucel (hydroxypropylcellulose) (HPC).
Setting [9] is: dose: 100.0 mg/kg/injection, schedule: Q04DX003 (ip), vehicle: Klucel (hydroxypropylcellulose) (HPC).
[10] abbreviates: dose: 200.0 mg/kg/injection, schedule: Q01DX001 (ip), vehicle: Klucel (hydroxypropylcellulose) (HPC).
Where [11] appears, read: dose: 200.0 mg/kg/injection, schedule: Q01DX009 (ip), vehicle: Klucel (hydroxypropylcellulose) (HPC).
[12] abbreviates: dose: 200.0 mg/kg/injection, schedule: Q04DX003 (ip), vehicle: Klucel (hydroxypropylcellulose) (HPC).
[13] abbreviates: dose: 400.0 mg/kg/injection, schedule: Q01DX001 (ip), vehicle: Klucel (hydroxypropylcellulose) (HPC).
Setting [14] is: dose: 400.0 mg/kg/injection, schedule: Q04DX003 (ip), vehicle: Klucel (hydroxypropylcellulose) (HPC).
The mark [15] stands for this setting: dose: 25.0 mg/kg/injection, schedule: Q01DX009 (ip), vehicle: saline.
The mark [16] stands for this setting: dose: 50.0 mg/kg/injection, schedule: Q01DX009 (ip), vehicle: saline.
Where [17] appears, read: dose: 50.0 mg/kg/injection, schedule: Q04DX003 (ip), vehicle: saline.
Where [18] appears, read: dose: 100.0 mg/kg/injection, schedule: Q01DX009 (ip), vehicle: saline.
Where [19] appears, read: dose: 200.0 mg/kg/injection, schedule: Q01DX001 (ip), vehicle: saline.

For `Cc1ccc(S(=O)(=O)/N=S(/C)c2ccccc2)cc1` (stereo unspecified), the T/C under setting [1] is 95 % of control; the T/C under setting [2] is 94 % of control; the T/C under setting [3] is 108 % of control; the T/C under setting [4] is 106 % of control; the T/C under setting [5] was 97 % of control; the T/C under setting [6] is 103 % of control.

`O=c1c2ccccc2ccc2ccccc12`: the T/C under setting [7] was 103 % of control; the T/C under setting [8] is 97 % of control; the T/C under setting [9] was 100 % of control; the T/C under setting [10] is 93 % of control; the T/C under setting [11] is 102 % of control; the T/C under setting [12] was 103 % of control. The T/C under setting [13] is 103 % of control; the T/C (dose: 400.0 mg/kg/injection, schedule: Q01DX009 (ip), vehicle: Klucel (hydroxypropylcellulose) (HPC)) is 100 % of control; the T/C under setting [14] was 105 % of control.

With `Cc1c[n+](Cc2ccccc2)cc(C)n1`, the T/C was 105 % of control (dose: 75.0 mg/kg/injection, schedule: Q01DX001 (ip), vehicle: saline) and 98 % of control (dose: 150.0 mg/kg/injection, schedule: Q01DX001 (ip), vehicle: saline).

Turning to `CCCC(=O)CC(C)=O.CCCC(=O)CC(C)=O.[Cu]`, the T/C by setting is: (dose: 5.0 mg/kg/injection, schedule: Q04DX003 (ip), vehicle: Klucel (hydroxypropylcellulose) (HPC)) 95 % of control; (dose: 6.0 mg/kg/injection, schedule: Q01DX009 (ip), vehicle: Klucel (hydroxypropylcellulose) (HPC)) 92 % of control; (dose: 10.0 mg/kg/injection, schedule: Q04DX003 (ip), vehicle: Klucel (hydroxypropylcellulose) (HPC)) 98 % of control; (dose: 12.0 mg/kg/injection, schedule: Q01DX009 (ip), vehicle: Klucel (hydroxypropylcellulose) (HPC)) 101 % of control; (dose: 20.0 mg/kg/injection, schedule: Q04DX003 (ip), vehicle: Klucel (hydroxypropylcellulose) (HPC)) 96 % of control; (dose: 40.0 mg/kg/injection, schedule: Q04DX003 (ip), vehicle: Klucel (hydroxypropylcellulose) (HPC)) 93 % of control.

In the case of `CC1CN1N` (stereo unspecified), the T/C under setting [15] is 101 % of control; the T/C under setting [16] was 101 % of control; the T/C under setting [17] was 109 % of control; the T/C (dose: 100.0 mg/kg/injection, schedule: Q01DX001 (ip), vehicle: saline) is 105 % of control; the T/C under setting [18] is 98 % of control; the T/C (dose: 100.0 mg/kg/injection, schedule: Q04DX003 (ip), vehicle: saline) is 103 % of control. The T/C under setting [19] was 105 % of control.

For `O=C(C[n+]1ccccc1)CC(O)(C(F)(F)F)C(F)(F)F`, the T/C runs as follows: (dose: 100.0 mg/kg/injection, schedule: Q04DX003 (ip), vehicle: saline with Tween-80) 104 % of control; (dose: 200.0 mg/kg/injection, schedule: Q04DX003 (ip), vehicle: saline with Tween-80) 103 % of control; (dose: 400.0 mg/kg/injection, schedule: Q04DX003 (ip), vehicle: saline with Tween-80) 98 % of control.

For `ClCCCCCCCCc1ccccc1`, the T/C is 105 % of control under setting [1]; 100 % of control under setting [2]; 102 % of control under setting [3]; 102 % of control under setting [4]; 107 % of control under setting [5]; 96 % of control under setting [6].

For the molecule `CCc1cc(O)c(Cl)c(C)c1Cl`, the T/C is, setting by setting: (dose: 50.0 mg/kg/injection, schedule: Q01DX009 (ip), vehicle: gum acacia) 97 % of control; (dose: 50.0 mg/kg/injection, schedule: Q04DX003 (ip), vehicle: gum acacia) 94 % of control; (dose: 100.0 mg/kg/injection, schedule: Q01DX009 (ip), vehicle: gum acacia) 92 % of control; (dose: 100.0 mg/kg/injection, schedule: Q04DX003 (ip), vehicle: gum acacia) 98 % of control; (dose: 200.0 mg/kg/injection, schedule: Q04DX003 (ip), vehicle: gum acacia) 96 % of control.

For the molecule `CC1Cc2cccc3ccc(=O)n(c23)C1` (stereo unspecified), the T/C by setting is: (dose: 100.0 mg/kg/injection, schedule: Q01DX001 (ip), vehicle: carboxymethylcellulose (CMC)) 91 % of control; (dose: 200.0 mg/kg/injection, schedule: Q01DX001 (ip), vehicle: carboxymethylcellulose (CMC)) 100 % of control; (dose: 400.0 mg/kg/injection, schedule: Q01DX001 (ip), vehicle: carboxymethylcellulose (CMC)) 98 % of control.

With `Nc1ncnc2c1c(C1=NCCN1)cn2C1OC(CO)C(O)C1O` (stereo unspecified), the T/C was 179 % of control under setting [15]; 155 % of control and 230 % of control under setting [16]; 105 % of control (dose: 200.0 mg/kg/injection, schedule: Q01DX005 (ip), vehicle: saline).

Consider `CC1CN1P1(N2CC2C)=NP(N2CC2C)(N2CC2C)=NP(N2CC2C)(N2CC2C)=N1` (stereo unspecified), for which the T/C runs as follows: (dose: 12.5 mg/kg/injection, schedule: Q01DX001 (ip), vehicle: saline) 106 % of control; (dose: 12.5 mg/kg/injection, schedule: Q04DX003 (ip), vehicle: saline) 116 % of control; (dose: 25.0 mg/kg/injection, schedule: Q01DX001 (ip), vehicle: saline) 105 % of control; under setting [15], 118 % of control; (dose: 25.0 mg/kg/injection, schedule: Q04DX003 (ip), vehicle: saline) 116 % of control; (dose: 50.0 mg/kg/injection, schedule: Q01DX001 (ip), vehicle: saline) 120 % of control. Moreover, the T/C under setting [16] is 111 % of control; the T/C under setting [17] was 112 % of control; the T/C (dose: 75.0 mg/kg/injection, schedule: Q04DX003 (ip), vehicle: acetone) is 120 % of control; the T/C under setting [18] was 106 % of control; the T/C (dose: 170.0 mg/kg/injection, schedule: Q04DX003 (ip), vehicle: acetone) was 105 % of control; the T/C under setting [19] is 104 % of control.

On to `CCCCCCOC(N)=O`, for which the T/C (dose: 50.0 mg/kg/injection, schedule: Q01DX009 (ip), vehicle: Klucel (hydroxypropylcellulose) (HPC)) was 96 % of control; the T/C under setting [8] was 96 % of control; the T/C under setting [9] is 96 % of control; the T/C under setting [11] is 96 % of control; the T/C under setting [12] is 96 % of control.

Turning to `O=P(N1CCCCCC1)(N1CC1)N1CC1`, the T/C (dose: 1.7 mg/kg/injection, schedule: Q01DX Z (ip), vehicle: saline) was 107 % of control; the T/C (dose: 2.6 mg/kg/injection, schedule: Q01DX Z (ip), vehicle: saline) is 114 % of control; the T/C (dose: 4.0 mg/kg/injection, schedule: Q01DX Z (ip), vehicle: saline) is 120 % of control; the T/C (dose: 9.0 mg/kg/injection, schedule: Q01DX Z (ip), vehicle: saline) was 152 % of control.

Take `O=C(c1ccc(N2CC=C(c3ccccc3)CC2)cc1)C1CC1`: the T/C reads like this: (dose: 100.0 mg/kg/injection, schedule: Q04DX002 (ip), vehicle: Klucel (hydroxypropylcellulose) (HPC)) 92 % of control; (dose: 200.0 mg/kg/injection, schedule: Q04DX002 (ip), vehicle: Klucel (hydroxypropylcellulose) (HPC)) 95 % of control; (dose: 400.0 mg/kg/injection, schedule: Q04DX002 (ip), vehicle: Klucel (hydroxypropylcellulose) (HPC)) 89 % of control.

Turning to `CCOP(=O)(NC12CC3CC(CC(C3)C1)C2)OCC`, the T/C under setting [8] was 97 % of control; the T/C under setting [9] was 93 % of control; the T/C under setting [11] was 94 % of control; the T/C under setting [12] is 98 % of control; the T/C under setting [14] is 90 % of control.

Turning to `ClC1(Cl)C2CCC3(CC21)OCCO3` (stereo unspecified), the T/C (dose: 50.0 mg/kg/injection, schedule: Q04DX003 (ip), vehicle: Klucel (hydroxypropylcellulose) (HPC)) is 115 % of control; the T/C under setting [7] is 114 % of control; the T/C under setting [9] is 103 % of control; the T/C under setting [10] is 106 % of control; the T/C under setting [12] was 93 % of control; the T/C under setting [13] was 101 % of control. Further, the T/C under setting [14] is 106 % of control.
